Results from US12172975B2, “1H-indazole carboxamides as receptor-interacting protein kinase 1 inhibitors (RIPK1)” (BRISTOL-MYERS SQUIBB COMPANY, priority 2018, dated 2024).
Structures can show the parent of a compound that is named as a salt. Where two headings read alike, the source gives them in different places.

Experiments:
[1] = test system: MLKL phosphorylation in HT29-L23 human colorectal adenocarcinoma cells; experiment: MLKL Phosphorylation High-Content Assay; assay type: cell-based; details: 6 h, necroptosis induced with TNFα, SMAC mimetic and Z-VAD, read-out: pMLKL (IC50)
Description: MLKL Phosphorylation High-Content Assay
HT29-L23 human colorectal adenocarcinoma cells were maintained in RPMI 1640 medium containing 10% heat-inactivated FBS, 1% Penicillin-Streptomycin and 10 mM HEPES. Cells were seeded at 2,000 cells/well in 384 well tissue culture-treated microplates (Greiner #781090-3B) and incubated at 37° C. (5% CO2/95% O2) for 2 d. […] (5% CO2/95% O2). Necroptopsis was induced using a mixture of human TNFα (35 ng/mL) (Peprotech #300-01A), SMAC mimetic (from US 2015/0322111 A1) (700 nM) and Z-VAD ([…]) (BD pharmingen #51-6936). Following 6 h incubation at 37° C. (5% CO2/95% O2), the cells were fixed with 4% formaldehyde (ACROS 11969-0010) for 15 min at rt, then permeabilized with phosphate buffered saline (PBS) containing 0.2% Triton-X-100 for 10 min. MLKL phosphorylation was detected using anti-MLKL (phospho S358) antibody (Abeam #ab 187091) (1:1000 dilution in Blocking Buffer [PBS supplemented with 0.1% BSA]) with ON incubation at 4° C. After washing three times in PBS, goat anti-rabbit Alexa-488 (1:1000 dilution) (Life Technologies, A11008) and Hoechst 33342 (Life Technologies, H3570) (1:2000 dilution) in Blocking Buffer were added for 1 h at rt.
Following another three cycles of washes in PBS, the microplates were sealed, and cellular images were acquired in the Cellomics ArrayScan VTI high-content imager equipped with an X1 camera. Fluorescent images were taken using a 10× objective and the 386-23 BGRFRN_BGRFRN and 485-20 BGRFRN_BGRFRN filter sets, for nuclei and MLKL phosphorylation, respectively. The image sets were analyzed using the Compartmental Analysis Bioapplication software (Cellomics). The level of MLKL phosphorylation was quantified as MEAN_CircRingAvglntenRatio. The maximal inhibitory response was defined by the activity induced by Neels (CAS #: 852391-15-2, 6.25 μM). […] The data were fitted using the 4-parameter logistic equation to calculate the IC50 and Ymax values.

[2] = target: His-GST-TVMV-hRIPK1 (1-324) (Homo sapiens (Human), UniProt Q13546); experiment: RIPK1 HTRF Binding Assay; details: read-out: RIPK1 HTRF (IC50); FRET probe displacement, 1 h at rt
His-GST-TVMV-hRIPK1 (1-324), sequence (Q13546 1-324): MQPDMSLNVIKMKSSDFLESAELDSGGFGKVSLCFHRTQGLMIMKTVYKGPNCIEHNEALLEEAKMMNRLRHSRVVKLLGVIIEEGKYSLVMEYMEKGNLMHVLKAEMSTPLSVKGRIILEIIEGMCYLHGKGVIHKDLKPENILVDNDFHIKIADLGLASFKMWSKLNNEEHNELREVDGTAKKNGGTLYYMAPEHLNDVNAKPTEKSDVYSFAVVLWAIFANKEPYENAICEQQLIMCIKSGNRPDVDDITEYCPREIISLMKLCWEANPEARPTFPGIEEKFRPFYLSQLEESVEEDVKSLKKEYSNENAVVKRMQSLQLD

## CNC(=O)c1n[nH]c2cc(-c3cc(C(=O)NCc4cccc(OC(F)(F)F)c4)c(OC)nc3C)ccc12 [Example 160, 6-[6-methoxy-2-methyl-5-({[3-(trifluoromethoxy)-phenyl]methyl}carbamoyl)-pyridin-3-yl]-N-methyl-1H-indazole-3-carboxamide]
[1]; Homo sapiens
  IC50: 120 nM
[2]
  IC50: 27 nM

## [2H]C([2H])([2H])Oc1ncc(-c2ccc3c(C(=O)NC4CC4)n[nH]c3c2)cc1C(=O)NCC(C)(C)C(=O)OC(C)(C)C [Example 200, tert-butyl 3-({5-[3-(cyclopropyl-carbamoyl)-1H-indazol-6-yl]-2-(deutero)methoxypyridin-3-yl}-formamido)-2,2-dimethyl-propanoate]
[1]; Homo sapiens
  IC50: 79 nM
[2]
  IC50: 130 nM

## CNC(=O)c1n[nH]c2cc(-c3cc(C(=O)NC(C)c4ccccc4OC(F)(F)F)c(C)nc3C)ccc12 (centres unmarked) [Example 162, 6-[2,6-dimethyl-5-({1-[2-(trifluoromethoxy)phenyl]-ethyl}carbamoyl)pyridin-3-yl]-N-methyl-1H-indazole-3-carboxamide]
[1]; Homo sapiens
  IC50: 74 nM
[2]
  IC50: 43 nM

## CNC(=O)c1n[nH]c2cc(-c3cnc(OC)c(C(=O)NCC[C@H](O)c4ccc(Cl)cc4)c3)cc(F)c12 [Example 145, 6-(5-{[(3S)-3-(4-chloro-phenyl)-3-hydroxypropyl]-carbamoyl}-6-methoxy-pyridin-3-yl)-4-fluoro-N-methyl-1H-indazole-3-carboxamide]
[1]; Homo sapiens
  IC50: 200 nM
[2]
  IC50: 9.6 nM

## CNC(=O)c1n[nH]c2cc(-c3cnc(OC)c(C(=O)NCc4cccc(OCC5CCC5)c4)c3)ccc12 [Example 115, 6-[5-({[3-(cyclobutylmeth-oxy)phenyl]methyl}carbam-oyl)-6-methoxypyridin-3-yl]-N-methyl-1H-indazole-3-carboxamide]
[1]
  IC50: 100 nM
[2]
  IC50: 0.04 nM

## CNC(=O)c1n[nH]c2cc(-c3cnc(OC)c(C(=O)NC4CCCC(OCC(F)(F)F)C4)c3)ccc12 (centres unmarked) [Example 87, 6-(6-methoxy-5-{[3-(2,2,2-trifluoroethoxy)cyclohexyl]-carbamoyl}pyridin-3-yl)-N-methyl-1H-indazole-3-carbox-amide]
[1]
  IC50: 13 nM
[2]
  IC50: 3.9 nM

## CNC(=O)c1n[nH]c2cc(-c3cnc(OC)c(C(=O)NCc4cccnc4OC)c3)ccc12 [Example 94, 6-(6-methoxy-5-{[(2-methoxy-pyridin-3-yl)methyl]carbam-oyl}pyridin-3-yl)-N-methyl-1H-indazole-3-carboxamide, TFA]
[1]
  IC50: 96 nM
[2]
  IC50: 9.9 nM

## [2H]C([2H])([2H])NC(=O)c1n[nH]c2cc(-c3cnc(OC)c(C(=O)NC(C)c4ccccc4OC(F)(F)F)c3)ccc12 (centres unmarked) [Example 152, 6-[6-methoxy-5-({1-[2-(tri-fluoromethoxy)phenyl]ethyl}-carbamoyl)pyridin-3-yl]-N-(deutero)methyl-1H-indazole-3-carboxamide]
[1]; Homo sapiens
  IC50: 3.3 nM
[2]
  IC50: 20 nM

## COc1ncc(-c2ccc3c(C(=O)NC4CC4)n[nH]c3c2)cc1C(=O)N[C@@H](C)c1cc(OC(F)(F)F)ccc1F [Example 206, N-cyclopropyl-6-(5-{[(1S)-1-[2-fluoro-5-(trifluoromethoxy)-phenyl](2,2,2-deutero)ethyl]-carbamoyl}-6-(deutero)methoxy-pyridin-3-yl)-1H-indazole-3-carboxamide]
[1]
  IC50: 3.8 nM
[2]
  IC50: 220 nM

## CNC(=O)c1n[nH]c2cc(-c3cnc(OC)c(C(=O)NCCC(C)c4ccccc4)c3)ccc12 (centres unmarked) [Example 37, 6-{6-methoxy-5-[(3-phenylbutyl)-carbamoyl]pyridin-3-yl}-N-methyl-1H-indazole-3-carbox-amide]
[1]
  IC50: 0.3 nM
[2]
  IC50: 1.7 nM

## COc1ncc(-c2ccc3c(C(=O)NC4CC4)n[nH]c3c2)cc1C(=O)N[C@H](C)c1cccc(OC(F)(F)F)c1 [Example 205, N-cyclopropyl-6-[6-(deutero)-methoxy-5-{[(1R)-1-[3-(trifluoro-methoxy)phenyl](2,2,2-deutero)-ethyl]carbamoyl}pyridin-3-yl]-1H-indazole-3-carboxamide, TFA]
[1]
  IC50: 60 nM
[2]
  IC50: 20 nM

## [2H]C([2H])([2H])Oc1ncc(-c2ccc3c(C(=O)NC4CC4)n[nH]c3c2)cc1C(=O)N[C@@H]1CN(C(=O)C2CC(F)(F)C2)C[C@@H]1F [Example 190, N-cyclopropyl-6-(5-{[(3R,4S)-1-(3,3-difluorocyclobutanecarbonyl)-4-fluoropyrrolidin-3-yl]carbamoyl}-6-(deutero)methoxypyridin-3-yl)-1H-indazole-3-carboxamide]
[1]; Homo sapiens
  IC50: 290 nM
[2]
  IC50: 100 nM

## CCN(CC1CCC1)C(=O)C1CCCC(NC(=O)c2cc(-c3ccc4c(C(=O)NC)n[nH]c4c3)cnc2OC)C1 (centres unmarked) [Example 124, 6-[5-({3-[(cyclobutylmethyl)-(ethyl)carbamoyl]cyclohexyl}-carbamoyl)-6-methoxypyridin-3-yl]-N-methyl-1H-indazole-3-carboxamide]
[1]; Homo sapiens
  IC50: 83 nM
[2]
  IC50: 26 nM

## [2H]C([2H])([2H])Oc1ncc(-c2ccc3c(C(=O)NC)n[nH]c3c2)cc1C(=O)NC([2H])([2H])c1ccccc1OC(F)(F)F [Example 16, 6-(6-methoxy D3-5-((2-(trifluoromethoxy)benzyl D2)carbamoyl)pyridin-3-yl)-N-methyl-1H-indazole-3-carboxamide]
[1]; Homo sapiens
  IC50: 8.6 nM
[2]
  IC50: 2.2 nM

## COc1ncc(-c2ccc3c(C(=O)NC4CC4)n[nH]c3c2)cc1C(=O)N[C@@H](C)c1cc(C(F)(F)F)ccc1F [Example 208, N-cyclopropyl-6-(5-{[(1S)-1-[2-fluoro-5-(trifluoromethyl)phenyl]-(2,2,2-deutero)ethyl]carbamoyl}-6-(deutero)methoxypyridin-3-yl)-1H-indazole-3-carboxamide, TFA]
[1]
  IC50: 18 nM
[2]
  IC50: 27 nM

## CNC(=O)c1n[nH]c2cc(-c3cnc(OC)c(C(=O)NCC4(c5ccc(F)cc5)CC4)c3)ccc12 [Example 71, 6-[5-({[1-(4-fluorophenyl)cyclo-propyl]methyl}carbamoyl)-6-methoxypyridin-3-yl]-N-methyl-1H-indazole-3-carboxamide]
[1]; Homo sapiens
  IC50: 77 nM
[2]
  IC50: 80 nM

## [2H]C([2H])([2H])Oc1ncc(-c2ccc3c(C(=O)NC([2H])([2H])C([2H])([2H])[2H])n[nH]c3c2)cc1C(=O)N[C@H](c1cc(OC(F)(F)F)ccc1F)C([2H])([2H])[2H] [Example 1]
[1]; Homo sapiens
  IC50: 6.1 nM
[2]
  IC50: 17 nM

## CNC(=O)c1n[nH]c2cc(-c3cnc(OC)c(C(=O)NCCC(=O)OC(C)(C)C)c3)ccc12 [Example 74, tert-butyl 3-({2-methoxy-5-[3-(methylcarbamoyl)-1H-indazol-6-yl]pyridin-3-yl}formamido)-propanoate]
[1]; Homo sapiens
  IC50: 62 nM
[2]
  IC50: 28 nM

## CNC(=O)c1n[nH]c2cc(-c3cnc(OC)c(C(=O)NCc4cc(C(F)(F)F)ccn4)c3)ccc12 [Example 143, 6-[6-methoxy-5-({[4-(trifluoro-methyl)pyridin-2-yl]methyl}-carbamoyl)pyridin-3-yl]-N-methyl-1H-indazole-3-carboxamide]
[1]; Homo sapiens
  IC50: 26 nM
[2]
  IC50: 28 nM

## [2H]C([2H])([2H])Oc1ncc(-c2ccc3c(C(=O)NC4CC4)n[nH]c3c2)cc1C(=O)NC1CCCC(C(=O)N2CCC(F)(F)C2)C1 (centres unmarked) [Example 203, N-cyclopropyl-6-(5-{[3-(3,3-difluoropyrrolidine-1-carbonyl)-cyclohexyl]carbamoyl}-6-(deutero)methoxypyridin-3-yl)-1H-indazole-3-carboxamide, TFA]
[1]; Homo sapiens
  IC50: 95 nM
[2]
  IC50: 12 nM

## CNC(=O)c1n[nH]c2cc(-c3cnc(OC)c(C(=O)NCc4ccc(F)c(C(F)(F)F)c4)c3)ccc12 [Example 104, 6-[5-({[4-fluoro-3-(trifluoro-methyl)phenyl]methyl}carbam-oyl)-6-methoxypyridin-3-yl]-N-methyl-1H-indazole-3-carboxamide]
[1]
  IC50: 93 nM
[2]
  IC50: 40 nM

## CNC(=O)c1n[nH]c2cc(-c3cnc(OC)c(C(=O)NC(C)c4ccccc4OC(F)(F)F)c3)ccc12 (single isomer, unassigned) [Example 15, 6-(6-methoxyd3-5-((1-(2-(trifluoromethoxy)phenyl)ethyl)carbamoyl)pyridin-3-yl)-N-methyl-1H-indazole-3-carboxamide]
[2]
  IC50: 5 nM

## CCc1ccccc1CNC(=O)c1cc(-c2ccc3c(C(=O)NC)n[nH]c3c2)cnc1OC [Example 82, 6-(5-{[(2-ethylphenyl)methyl]-carbamoyl}-6-methoxy-pyridin-3-yl)-N-methyl-1H-indazole-3-carboxamide]
[1]; Homo sapiens
  IC50: 41 nM
